# Measured values reported in patent publication US6673843B2 (Emory University, priority 1999, dated 2004).
# “Also recorded” adds a separate entry of the source.
# Columns and labels:
# [1] = tested on: bFGF-induced corneal neovascularization; experiment: Corneal neovascularization, bFGF pellet in mouse cornea; assay type: in vivo, C57BL6 male mice; settings: for ANTI-ANGIOGENIC EFFECT Vessel Length / ANTI-ANGIOGENIC EFFECT Sector Size: pellet with 80 ng bFGF and 44 μg compound, mouse cornea; for ANTI-ANGIOGENIC EFFECT Sector Size: footnote: units of 1/12 of a circle (clock hours)
# Protocol: C57BL6 male mice (5-6 weeks old) were anesthetized with methoxyflurane prior to implantation of pellets and with 0.5% proparacaine. A central, intrastromal linear keratotomy was performed with a surgical blade, and a lamellar micropocket was prepared according to the method of Kenyon, et al. (1996). The pellet was advanced to the end of the pocket. Erythromycin ointment was placed on the operated eye to prevent infection. Eyes were examined by slit lamp on days 3-6 after implantation under general anesthesia. Corneal angiogenesis was assayed through two measurements.
# Vessel length is the length of the vessel from the corneal limbus as it grows toward the pellet containing bFGF.
# Sector size is a measurement of neovascularized area of the cornea. The cornea is viewed as a circle that can be divided into twelve sectors of 30 degrees span each, analogous to the division of a clock face into twelve hours. Thus, neovascularization of a sector corresponding to one fourth of the cornea would be recorded as a sector size measurement of three. This system of measurement, recording sector sizes as “clock hours”, was established by Kenyon et al., Invest. Ophthalmol. 37:1625-1632 (1996).
# Pellets were prepared according to a modification of the method of Kenyon, et al. Invest. Opthalmol. Vis. Sci. 37:1625-1632 (1996). […] Once the mixture was dry, the mesh was manually dissociated to yield 225 pellets. […] The approximate pore size was 0.4×0.4 mm. Both sides of the mesh were covered with a thin layer of hydron.
# Neovascularization was assessed by slit lamp at 5 days after implantation, and the corneas were photographed.
# [2] = tested on: quinone reductase [NAD(P)H:(quinone-acceptor) oxidoreductase, EC1.6.99.2] in murine Hepac1c7 cells; experiment: Phase II enzyme induction (quinone reductase); assay type: cell-based; settings: for PHASE II INDUCTION CD (concentration to double the measured specific activity): quinone reductase, murine Hepac1c7 cells
# Text: Several plant-derived compounds with anticancer and chemopreventive activities also show the ability to induce phase II detoxifying enzymes, including quinone reductase.
# [3] = tested on: human umbilical vein endothelial cells (HUVEC); settings: independent of bFGF stimulation; Singh et al. 1996; cited from earlier work
# induced tumors = settings: oral administration, skin and colon chemical carcinogens; cited from earlier work
# VEGF mRNA = experiment: Production of VEGF mRNA in HaCaT keratinocytes (RNAse protection); assay type: cell-based, human; settings: TPA 5 ng/ml, three hours, HaCaT cells
# Protocol: HaCaT keratinocytes were grown in (DMEM) (JRH) supplemented with 5% FCS (Hyclone, Logan, UT) in 25 cm^2 flasks. […] TPA was added to a final concentration of 5 ng/ml and cells were incubated for three hours at 37° C. and harvested, and their RNA was extracted with guanidinium thiocyanate/phenol.
# A plasmid containing the coding region of human vascular endothelial growth factor (VEGF) 121 was obtained from H. Welch (University of Freiburg, Germany), and used to generate P^32-labeled antisense riboprobe as per manufacturers protocols (Ambion, Austin, Tex.). RNAse protection assays were performed according to the method of Hod, Biotechniques 13:852-853 (1992). Protected fragments were separated on gels of 5% acrylamide, 8 M urea, 1× Tris-borate buffer, and quantified with a phosphorimager (Molecular Dynamics, Sunnyvale, Calif.). An 18S riboprobe was included in each sample to normalize for variations in loading and recovery of RNA.
# HaCaT cells are derived from spontaneously transformed human keratinocytes.
# [4] = tested on: MSI (ATCC CCRL 2279) endothelial cells; experiment: Endothelial proliferation assay, SV40 large T antigen immortalized endothelial cells; assay type: cell-based, murine; settings: 72-hour exposure
# Protocol: Similarly, MSI (ATCC CCRL 2279) endothelial cells, which are a SV40 large T antigen immortalized murine endothelial cell line, were also plated at a concentration of 10,000 cells/well in nongelatinized 24-well dishes.
# [5] = tested on: Bovine capillary endothelial cells; experiment: Endothelial proliferation assay, primary endothelial cells; assay type: cell-based; settings: 72 hours
# Protocol: Bovine capillary endothelial cells were isolated according to the method of Folkman, et al., Proc. Nat. Acad. Sci. U.S.A. 76:5217-5221 (1979), and were plated at a concentration of 10,000 cells/well in gelatinized 24-well dishes. The primary endothelial cells were cultured in Dulbecco's modified Eagle's medium (DMEM) supplemented with 10% bovine serum and grown at 37° C. in 10% CO2. Twenty-four hours after plating, cells were treated with curcumin in the presence or absence of bFGF. After 72 hours of treatment, cells were counted using a Coulter counter. Cell counts for each condition were repeated in triplicate and in the presence or absence of 1 ng/ml bFGF. Endothelial cells were stimulated to proliferate in the presence of 1 ng/ml bFGF.
# [6] = tested on: omithine decarboxylase induction and promotion of mouse skin; settings: oral administration; Huang et al. 1995; cited from earlier work
# [7] = pellet with 80 ng bFGF plus compound
SMILES,ANTI-ANGIOGENIC EFFECT Vessel Length [1] [mm.],ANTI-ANGIOGENIC EFFECT Sector Size [1] [clock hours],PHASE II INDUCTION CD (concentration to double the measured specific activity) [2] [µM],further results
"O=C(/C=C/c1ccc(O)cc1)CC(=O)/C=C/c1ccc(O)cc1 [Bisdemethoxycurcumin, bisdemethoxycurcumin]",0.88,1.7,11.0,–
COc1cc(/C=C/C(=O)CC(=O)/C=C/c2ccc(O)c(OC)c2)ccc1O [Curcumin],0.59,1.17,7.3,"in vitro proliferation of HUVEC [3]: inhibits; incidence and size of induced tumors compared with control mice (induced tumors): decreased incidence and size; sector size (in words) [1, 7]: significantly reduced; vessel length (in words) [1, 7]: significantly reduced; inhibition of TPA-caused increase in VEGF mRNA (VEGF mRNA; 10 μM curcumin): not inhibited; also recorded: lack of inhibition; growth of endothelial cells immortalized by SV40 large T antigen [4]: able to inhibit the growth; cell number (proliferation) after treatment ([5]; 10 μM, presence or absence of 1 ng/ml bFGF): steep decrease in cell number; cytotoxicity to endothelial cells ([5]; 0.5 to 10 μM): No evidence of cytotoxicity; inhibition of phorbol ester-stimulated ornithine decarboxylase induction and promotion of DMBA-initiated mouse skin [6]: able to inhibit"
"COc1cc(/C=C/C(O)=C/C(=O)/C=C/c2ccc(O)cc2)ccc1O [Demethoxycurcumin, demethoxycurcumin]",0.26,0.71,9.0,–
"CCCCCCCCCCCCCC(=O)O[C@@H]1[C@@H](C)[C@@]2(O)[C@@H](C=C(CO)C[C@]3(O)C(=O)C(C)=C[C@@H]23)[C@@H]2C(C)(C)[C@]12OC(C)=O [TPA, 12-O-tetradecanoylphorbol-13-acetate, reference compound]",–,–,–,increase in VEGF mRNA (VEGF mRNA): 2.5 fold
"O=C1C(c2ccccc2)=C(c2ccccc2)C(c2ccccc2)=C1c1ccccc1 [TPCPD, tetraphenylcyclopentadienone, reference compound]",1.16,3.72,4.8,"bFGF-induced corneal neovascularization (in words) [1, 7]: no anti-angiogenic activity; also recorded: no difference in neovascularization; bFGF-induced corneal neovascularization (in words) ([1]; pellet with 80 ng bFGF plus compound, listed as tetraphenylcyclopentadienone (TPCPD)): no effect"
"COc1cc(CCC(=O)CC(=O)CCc2ccc(O)c(OC)c2)ccc1O [Tetrahydrocurcumin, tetrahydrocurcumin]",0.74,2.43,>25,"induction of quinone reductase activity ([2]; highest concentration tested, 25 μM): 1.6 fold"
